Assay results as given in patent US20060112494A1, “Method of protecting an animal skin product from metalloproteinase activity” (priority 2004, published 2006).
Read-outs that look alike come from different tables or passages of the source.

Experiments:
[1] = tested on: mixed bacteria on fresh hide samples; parameters: Growth/Days 2 / Growth/Days 4: key to the marks not given beside the values; conditions: for Growth/Days 1: day 1; for Growth/Days 2: day 2; for Growth/Days 4: day 4;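 for all read-outs here: fresh hide pieces laid on inhibitor-containing nutrient agar supplemented with 0.5% Azocoll, incubated at 30 °C, then scored for growth of bacteria originating from the hide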
collagenase = conditions: for Collagenase Activity/Days 1: day 1; for Collagenase Activity/Days 2: day 2; for Collagenase Activity/Days 4: day 4; for Collagenase Activity/Days 7: day 7;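 for all read-outs here: nutrient agar containing 0.5% Azocoll with inhibitor, topped by a fresh hide piece, kept at 30 °C, collagenase from hide bacteria scored visually as clearing zone around growth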
Experimental: Nutrient agar amended with 0.5% AZOCOLL was used as the test medium to study collagenase activity. The nutrient agar was prepared and autoclaved and then was cooled to 55° C. Azocol was added to give a final concentration of 0.5%. […] Fresh hides were obtained from a tannery and were cut into pieces of approximately 2 cm square. One 2×2 cm hide sample was placed on top of the agar containing the inhibitors. Treated samples were incubated at 30° C. and evaluated after 24 hours, 2 days, 3 or 4 days and 7 days for collagenase activity and also for the growth of the bacteria. The bacteria from the hides secreted collagenase into the medium as they grew to degrade the collagen in the azocoll medium and collagenase activity was determined by visual inspection of the clear zone around the bacteria

O=C([O-])CN(CCN(CC(=O)[O-])CC(=O)[O-])CC(=O)[O-].[Na+].[Na+].[Na+].[Na+] [Na4EDTA, ethylenediaminetetraacetic acid tetrasodium salt]
++++: Growth/Days 1 ([1]; Conc. 0.025%) | Growth/Days 2 ([1]; Conc. 0.025%) | Growth/Days 4 ([1]; Conc. 0.025%) | Growth/Days 1 ([1]; Conc. 0.05%) | Growth/Days 2 ([1]; Conc. 0.05%) | Growth/Days 4 ([1]; Conc. 0.05%) | Growth/Days 1 ([1]; Conc. 0.075%) | Growth/Days 2 ([1]; Conc. 0.075%) | Growth/Days 4 ([1]; Conc. 0.075%) | Growth/Days 1 ([1]; Conc. 0.1%) | Growth/Days 2 ([1]; Conc. 0.1%) | Growth/Days 4 ([1]; Conc. 0.1%) | Growth/Days 1 ([1]; Conc. 0.2%) | Growth/Days 2 ([1]; Conc. 0.2%) | Growth/Days 4 ([1]; Conc. 0.2%) | Growth/Days 1 ([1]; Conc. 0.3%) | Growth/Days 2 ([1]; Conc. 0.3%) | Growth/Days 4 ([1]; Conc. 0.3%) | Growth/Days 1 ([1]; Conc. 0.4%) | Growth/Days 2 ([1]; Conc. 0.4%) | Growth/Days 4 ([1]; Conc. 0.4%) | Growth/Days 1 ([1]; Conc. 0.5%) | Growth/Days 2 ([1]; Conc. 0.5%) | Growth/Days 4 ([1]; Conc. 0.5%) | Collagenase Activity/Days 1 (collagenase; Conc. 0.025%) | Collagenase Activity/Days 2 (collagenase; Conc. 0.025%) | Collagenase Activity/Days 4 (collagenase; Conc. 0.025%) | Collagenase Activity/Days 7 (collagenase; Conc. 0.025%) | Collagenase Activity/Days 1 (collagenase; Conc. 0.05%) | Collagenase Activity/Days 2 (collagenase; Conc. 0.05%) | Collagenase Activity/Days 4 (collagenase; Conc. 0.05%) | Collagenase Activity/Days 7 (collagenase; Conc. 0.05%) | Collagenase Activity/Days 7 (collagenase; Conc. 0.075%)
+++: Collagenase Activity/Days 4 (collagenase; Conc. 0.075%) | Collagenase Activity/Days 7 (collagenase; Conc. 0.1%) | Collagenase Activity/Days 7 (collagenase; Conc. 0.2%) | Collagenase Activity/Days 7 (collagenase; Conc. 0.3%) | Collagenase Activity/Days 7 (collagenase; Conc. 0.4%)
+: Collagenase Activity/Days 1 (collagenase; Conc. 0.075%) | Collagenase Activity/Days 2 (collagenase; Conc. 0.1%) | Collagenase Activity/Days 2 (collagenase; Conc. 0.2%) | Collagenase Activity/Days 2 (collagenase; Conc. 0.3%) | Collagenase Activity/Days 4 (collagenase; Conc. 0.3%) | Collagenase Activity/Days 2 (collagenase; Conc. 0.4%) | Collagenase Activity/Days 4 (collagenase; Conc. 0.4%)
0: Collagenase Activity/Days 1 (collagenase; Conc. 0.1%) | Collagenase Activity/Days 1 (collagenase; Conc. 0.2%) | Collagenase Activity/Days 1 (collagenase; Conc. 0.3%) | Collagenase Activity/Days 1 (collagenase; Conc. 0.4%) | Collagenase Activity/Days 1 (collagenase; Conc. 0.5%) | Collagenase Activity/Days 2 (collagenase; Conc. 0.5%)
++: Collagenase Activity/Days 2 (collagenase; Conc. 0.075%) | Collagenase Activity/Days 4 (collagenase; Conc. 0.1%) | Collagenase Activity/Days 4 (collagenase; Conc. 0.2%) | Collagenase Activity/Days 7 (collagenase; Conc. 0.5%)

O=C([O-])CN(CCN(CC(=O)O)CC(=O)O)CC(=O)[O-].[Na+].[Na+] [Na2EDTA, ethylenediaminetetraacetic acid disodium salt]
+: Collagenase Activity/Days 1 (collagenase; Conc. 0.075%) | Collagenase Activity/Days 2 (collagenase; Conc. 0.1%) | Collagenase Activity/Days 7 (collagenase; Conc. 0.2%) | Collagenase Activity/Days 7 (collagenase; Conc. 0.3%)
+++: Growth/Days 2 ([1]; Conc. 0.2%) | Growth/Days 2 ([1]; Conc. 0.3%) | Growth/Days 2 ([1]; Conc. 0.4%) | Growth/Days 2 ([1]; Conc. 0.5%) | Collagenase Activity/Days 2 (collagenase; Conc. 0.05%) | Collagenase Activity/Days 2 (collagenase; Conc. 0.075%) | Collagenase Activity/Days 4 (collagenase; Conc. 0.1%) | Collagenase Activity/Days 7 (collagenase; Conc. 0.1%)
++: Growth/Days 1 ([1]; Conc. 0.1%)
0: Growth/Days 1 ([1]; Conc. 0.2%) | Growth/Days 1 ([1]; Conc. 0.3%) | Growth/Days 1 ([1]; Conc. 0.4%) | Growth/Days 1 ([1]; Conc. 0.5%) | Collagenase Activity/Days 1 (collagenase; Conc. 0.05%) | Collagenase Activity/Days 1 (collagenase; Conc. 0.1%) | Collagenase Activity/Days 1 (collagenase; Conc. 0.2%) | Collagenase Activity/Days 2 (collagenase; Conc. 0.2%) | Collagenase Activity/Days 4 (collagenase; Conc. 0.2%) | Collagenase Activity/Days 1 (collagenase; Conc. 0.3%) | Collagenase Activity/Days 2 (collagenase; Conc. 0.3%) | Collagenase Activity/Days 4 (collagenase; Conc. 0.3%) | Collagenase Activity/Days 1 (collagenase; Conc. 0.4%) | Collagenase Activity/Days 2 (collagenase; Conc. 0.4%) | Collagenase Activity/Days 4 (collagenase; Conc. 0.4%) | Collagenase Activity/Days 7 (collagenase; Conc. 0.4%) | Collagenase Activity/Days 1 (collagenase; Conc. 0.5%) | Collagenase Activity/Days 2 (collagenase; Conc. 0.5%) | Collagenase Activity/Days 4 (collagenase; Conc. 0.5%) | Collagenase Activity/Days 7 (collagenase; Conc. 0.5%)
++++: Growth/Days 1 ([1]; Conc. 0.025%) | Growth/Days 2 ([1]; Conc. 0.025%) | Growth/Days 4 ([1]; Conc. 0.025%) | Growth/Days 1 ([1]; Conc. 0.05%) | Growth/Days 2 ([1]; Conc. 0.05%) | Growth/Days 4 ([1]; Conc. 0.05%) | Growth/Days 1 ([1]; Conc. 0.075%) | Growth/Days 2 ([1]; Conc. 0.075%) | Growth/Days 4 ([1]; Conc. 0.075%) | Growth/Days 2 ([1]; Conc. 0.1%) | Growth/Days 4 ([1]; Conc. 0.1%) | Growth/Days 4 ([1]; Conc. 0.2%) | Growth/Days 4 ([1]; Conc. 0.3%) | Growth/Days 4 ([1]; Conc. 0.4%) | Growth/Days 4 ([1]; Conc. 0.5%) | Collagenase Activity/Days 1 (collagenase; Conc. 0.025%) | Collagenase Activity/Days 2 (collagenase; Conc. 0.025%) | Collagenase Activity/Days 4 (collagenase; Conc. 0.025%) | Collagenase Activity/Days 7 (collagenase; Conc. 0.025%) | Collagenase Activity/Days 4 (collagenase; Conc. 0.05%) | Collagenase Activity/Days 7 (collagenase; Conc. 0.05%) | Collagenase Activity/Days 4 (collagenase; Conc. 0.075%) | Collagenase Activity/Days 7 (collagenase; Conc. 0.075%)

O=C([O-])CN(CCN(CC(=O)[O-])CC(=O)O)CC(=O)[O-].[Na+].[Na+].[Na+] [Na3EDTA, ethylenediaminetetraacetic acid trisodium salt]
+++: Growth/Days 1 ([1]; Conc. 0.3%) | Growth/Days 2 ([1]; Conc. 0.3%) | Growth/Days 4 ([1]; Conc. 0.3%) | Collagenase Activity/Days 2 (collagenase; Conc. 0.05%) | Collagenase Activity/Days 4 (collagenase; Conc. 0.075%) | Collagenase Activity/Days 4 (collagenase; Conc. 0.1%) | Collagenase Activity/Days 7 (collagenase; Conc. 0.1%) | Collagenase Activity/Days 7 (collagenase; Conc. 0.2%)
++: Growth/Days 1 ([1]; Conc. 0.5%) | Collagenase Activity/Days 1 (collagenase; Conc. 0.05%) | Collagenase Activity/Days 4 (collagenase; Conc. 0.2%) | Collagenase Activity/Days 7 (collagenase; Conc. 0.3%)
++++: Growth/Days 1 ([1]; Conc. 0.025%) | Growth/Days 2 ([1]; Conc. 0.025%) | Growth/Days 4 ([1]; Conc. 0.025%) | Growth/Days 1 ([1]; Conc. 0.05%) | Growth/Days 2 ([1]; Conc. 0.05%) | Growth/Days 4 ([1]; Conc. 0.05%) | Growth/Days 1 ([1]; Conc. 0.075%) | Growth/Days 2 ([1]; Conc. 0.075%) | Growth/Days 4 ([1]; Conc. 0.075%) | Growth/Days 1 ([1]; Conc. 0.1%) | Growth/Days 2 ([1]; Conc. 0.1%) | Growth/Days 4 ([1]; Conc. 0.1%) | Growth/Days 1 ([1]; Conc. 0.2%) | Growth/Days 2 ([1]; Conc. 0.2%) | Growth/Days 4 ([1]; Conc. 0.2%) | Growth/Days 1 ([1]; Conc. 0.4%) | Growth/Days 2 ([1]; Conc. 0.4%) | Growth/Days 4 ([1]; Conc. 0.4%) | Growth/Days 2 ([1]; Conc. 0.5%) | Growth/Days 4 ([1]; Conc. 0.5%) | Collagenase Activity/Days 1 (collagenase; Conc. 0.025%) | Collagenase Activity/Days 2 (collagenase; Conc. 0.025%) | Collagenase Activity/Days 4 (collagenase; Conc. 0.025%) | Collagenase Activity/Days 7 (collagenase; Conc. 0.025%) | Collagenase Activity/Days 4 (collagenase; Conc. 0.05%) | Collagenase Activity/Days 7 (collagenase; Conc. 0.05%) | Collagenase Activity/Days 7 (collagenase; Conc. 0.075%)
0: Collagenase Activity/Days 1 (collagenase; Conc. 0.075%) | Collagenase Activity/Days 1 (collagenase; Conc. 0.1%) | Collagenase Activity/Days 1 (collagenase; Conc. 0.2%) | Collagenase Activity/Days 2 (collagenase; Conc. 0.2%) | Collagenase Activity/Days 1 (collagenase; Conc. 0.3%) | Collagenase Activity/Days 2 (collagenase; Conc. 0.3%) | Collagenase Activity/Days 1 (collagenase; Conc. 0.4%) | Collagenase Activity/Days 2 (collagenase; Conc. 0.4%) | Collagenase Activity/Days 4 (collagenase; Conc. 0.4%) | Collagenase Activity/Days 1 (collagenase; Conc. 0.5%) | Collagenase Activity/Days 2 (collagenase; Conc. 0.5%) | Collagenase Activity/Days 4 (collagenase; Conc. 0.5%)
+: Collagenase Activity/Days 2 (collagenase; Conc. 0.075%) | Collagenase Activity/Days 2 (collagenase; Conc. 0.1%) | Collagenase Activity/Days 4 (collagenase; Conc. 0.3%) | Collagenase Activity/Days 7 (collagenase; Conc. 0.4%) | Collagenase Activity/Days 7 (collagenase; Conc. 0.5%)
